Read-outs that look alike come from different tables or passages of the source.
Experiments:
Format in all cases: binding
[1] = molecular target: T1, HeLa cell extract proteins (Homo sapiens, UniProt O14744)
T1 construct: endogenous in cells; host or cells: HeLa cell extract

[2] = molecular target: T2, HeLa cell extract proteins (Homo sapiens, UniProt O75964)
T2 construct: endogenous in cells; host or cells: HeLa cell extract
T2 sequence (O75964 1-103): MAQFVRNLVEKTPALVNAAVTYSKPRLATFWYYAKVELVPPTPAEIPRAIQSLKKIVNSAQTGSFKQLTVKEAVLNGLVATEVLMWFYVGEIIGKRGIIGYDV

[3] = molecular target: T3, HeLa cell extract proteins (Homo sapiens, UniProt P04179)
T3 construct: endogenous in cells; host or cells: HeLa cell extract
T3 sequence (P04179 25-222): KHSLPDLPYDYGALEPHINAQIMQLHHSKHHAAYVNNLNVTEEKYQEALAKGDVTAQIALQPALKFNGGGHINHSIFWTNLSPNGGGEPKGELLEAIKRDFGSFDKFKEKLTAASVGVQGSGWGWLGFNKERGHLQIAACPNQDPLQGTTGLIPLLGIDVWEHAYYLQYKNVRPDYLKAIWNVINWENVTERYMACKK

[4] = molecular target: T4, HeLa cell extract proteins (Homo sapiens, UniProt P40616)
T4 construct: endogenous in cells; host or cells: HeLa cell extract
T4 sequence (P40616 1-181): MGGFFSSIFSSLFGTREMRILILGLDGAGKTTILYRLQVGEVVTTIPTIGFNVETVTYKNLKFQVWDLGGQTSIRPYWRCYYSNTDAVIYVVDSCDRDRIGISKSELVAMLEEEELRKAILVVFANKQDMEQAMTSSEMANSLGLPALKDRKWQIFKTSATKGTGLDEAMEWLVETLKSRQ

[5] = molecular target: T5, HeLa cell extract proteins (Homo sapiens, UniProt P51149)
T5 construct: endogenous in cells; host or cells: HeLa cell extract
T5 sequence (P51149 whole entry): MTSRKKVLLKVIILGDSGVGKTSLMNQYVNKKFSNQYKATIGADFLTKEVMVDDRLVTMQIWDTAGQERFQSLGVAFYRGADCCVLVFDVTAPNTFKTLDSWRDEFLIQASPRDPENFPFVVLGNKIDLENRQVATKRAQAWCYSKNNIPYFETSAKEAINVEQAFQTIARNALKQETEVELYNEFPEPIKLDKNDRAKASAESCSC

[6] = molecular target: T6, HeLa cell extract proteins (Homo sapiens, UniProt P53999)
T6 construct: endogenous in cells; host or cells: HeLa cell extract

[7] = molecular target: T7, HeLa cell extract proteins (Homo sapiens, UniProt P56381)
T7 construct: endogenous in cells; host or cells: HeLa cell extract
T7 sequence (P56381 1-51): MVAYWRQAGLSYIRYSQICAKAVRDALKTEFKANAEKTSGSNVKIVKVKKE

[8] = molecular target: T8, HeLa cell extract proteins (Homo sapiens, UniProt Q14566)
T8 construct: endogenous in cells; host or cells: HeLa cell extract
T8 sequence (Q14566 1-821): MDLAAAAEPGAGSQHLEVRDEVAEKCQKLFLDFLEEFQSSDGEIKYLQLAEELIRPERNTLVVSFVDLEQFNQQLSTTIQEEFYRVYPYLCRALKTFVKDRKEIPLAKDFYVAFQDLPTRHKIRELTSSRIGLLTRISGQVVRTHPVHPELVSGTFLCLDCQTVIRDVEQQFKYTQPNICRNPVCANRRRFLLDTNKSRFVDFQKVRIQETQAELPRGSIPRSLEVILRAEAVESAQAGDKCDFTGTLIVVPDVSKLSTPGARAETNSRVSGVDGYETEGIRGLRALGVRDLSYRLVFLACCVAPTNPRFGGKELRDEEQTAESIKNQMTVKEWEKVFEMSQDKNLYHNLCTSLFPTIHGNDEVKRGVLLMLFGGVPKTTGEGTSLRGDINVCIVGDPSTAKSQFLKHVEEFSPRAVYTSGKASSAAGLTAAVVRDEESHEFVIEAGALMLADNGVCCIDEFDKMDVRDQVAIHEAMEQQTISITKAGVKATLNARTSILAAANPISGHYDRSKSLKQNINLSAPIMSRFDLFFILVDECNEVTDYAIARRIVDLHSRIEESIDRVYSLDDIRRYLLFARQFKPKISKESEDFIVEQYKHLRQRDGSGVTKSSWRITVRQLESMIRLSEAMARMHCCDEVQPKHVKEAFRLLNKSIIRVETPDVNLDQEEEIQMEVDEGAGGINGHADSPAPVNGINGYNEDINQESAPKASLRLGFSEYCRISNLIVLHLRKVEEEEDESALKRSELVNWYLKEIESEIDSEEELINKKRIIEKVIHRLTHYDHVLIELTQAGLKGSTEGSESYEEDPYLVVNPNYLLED

[9] = molecular target: T9, HeLa cell extract proteins (Homo sapiens, UniProt Q9ULX6)
T9 construct: endogenous in cells; host or cells: HeLa cell extract
T9 sequence (Q9ULX6 1-646): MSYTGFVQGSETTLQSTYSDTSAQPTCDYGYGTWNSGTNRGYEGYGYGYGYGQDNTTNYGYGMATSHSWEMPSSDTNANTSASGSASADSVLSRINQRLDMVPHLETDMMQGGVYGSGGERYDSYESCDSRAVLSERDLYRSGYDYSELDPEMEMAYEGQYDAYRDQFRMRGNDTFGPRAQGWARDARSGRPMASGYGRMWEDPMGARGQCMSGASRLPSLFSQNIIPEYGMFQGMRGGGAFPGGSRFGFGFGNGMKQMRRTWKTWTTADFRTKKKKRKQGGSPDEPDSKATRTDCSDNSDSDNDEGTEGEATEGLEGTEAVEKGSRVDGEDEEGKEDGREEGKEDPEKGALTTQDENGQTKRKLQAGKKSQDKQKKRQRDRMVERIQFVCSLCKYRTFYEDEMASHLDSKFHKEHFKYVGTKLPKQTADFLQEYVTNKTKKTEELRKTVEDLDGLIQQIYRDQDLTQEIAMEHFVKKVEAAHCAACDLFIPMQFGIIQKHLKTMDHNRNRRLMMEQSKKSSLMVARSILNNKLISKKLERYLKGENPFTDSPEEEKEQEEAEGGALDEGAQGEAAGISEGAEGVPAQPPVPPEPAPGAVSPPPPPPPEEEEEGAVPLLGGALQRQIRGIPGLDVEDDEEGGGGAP

T1 sequence (O14744 whole entry): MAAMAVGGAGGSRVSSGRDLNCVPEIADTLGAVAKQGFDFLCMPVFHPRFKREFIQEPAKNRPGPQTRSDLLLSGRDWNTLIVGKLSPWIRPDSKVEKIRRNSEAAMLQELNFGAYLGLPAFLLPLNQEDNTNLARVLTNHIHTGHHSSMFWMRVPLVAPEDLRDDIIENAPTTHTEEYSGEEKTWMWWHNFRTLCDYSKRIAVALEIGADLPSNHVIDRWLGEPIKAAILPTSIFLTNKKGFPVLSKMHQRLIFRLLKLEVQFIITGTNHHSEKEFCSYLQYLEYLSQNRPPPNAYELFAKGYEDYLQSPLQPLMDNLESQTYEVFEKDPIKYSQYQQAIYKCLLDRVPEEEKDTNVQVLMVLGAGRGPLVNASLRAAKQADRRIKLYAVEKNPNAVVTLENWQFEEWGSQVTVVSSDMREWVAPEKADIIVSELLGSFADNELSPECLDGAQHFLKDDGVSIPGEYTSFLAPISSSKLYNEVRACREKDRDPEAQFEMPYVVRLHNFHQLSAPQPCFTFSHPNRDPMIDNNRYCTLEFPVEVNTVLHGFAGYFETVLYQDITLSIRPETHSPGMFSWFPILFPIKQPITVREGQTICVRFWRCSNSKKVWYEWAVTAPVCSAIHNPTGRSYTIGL

SMILES | fold changes relative to vehicle control ([1]; protein PRMT5, HeLa) | fold changes relative to vehicle control ([2]; HeLa, protein ATP5L) | fold changes relative to vehicle control ([3]; HeLa, protein SOD2) | fold changes relative to vehicle control ([4]; protein ARL1, HeLa) | fold changes relative to vehicle control ([5]; protein RAB7A, HeLa) | fold changes relative to vehicle control ([6]; HeLa, protein SUB1) | fold changes relative to vehicle control ([7]; HeLa, captured protein ATP5E) | fold changes relative to vehicle control ([8]; HeLa, protein MCM6) | fold changes relative to vehicle control ([9]; HeLa, protein AKAP8L) | fold changes relative to vehicle control ([2]; protein ATP5L, HeLa) | fold changes relative to vehicle control ([3]; protein SOD2, HeLa) | fold changes relative to vehicle control ([4]; captured protein ARL1, HeLa) | fold changes relative to vehicle control ([6]; protein SUB1, HeLa) | fold changes relative to vehicle control ([7]; captured protein ATP5E, HeLa) | fold changes relative to vehicle control ([8]; protein MCM6, HeLa) | fold changes relative to vehicle control ([9]; captured protein AKAP8L, HeLa) | other results
Nc1nc2c(c(=O)[nH]1)N(C=O)C(CNc1ccc(C(=O)N[C@@H](CCC(=O)O)C(=O)O)cc1)CN2 (stereo partly drawn) [LEU, leucovorin] | 0.96 | 1.07 | 1.14 | 0.8 | 0.99 | 0.7 | 1.13 | 1.28 | 1.01 |  |  |  |  |  |  |  | 
Nc1nc2[nH]cc(CCc3ccc(C(=O)N[C@@H](CCC(=O)O)C(=O)O)cc3)c2c(=O)[nH]1 [PTX, pemetrexed] |  |  |  |  |  |  |  |  |  |  |  |  |  |  |  |  | fold changes relative to vehicle control [1]: 0.99; fold changes relative to vehicle control [2]: 1.32; fold changes relative to vehicle control [3]: 1.29; fold changes relative to vehicle control [4]: 0.77; fold changes relative to vehicle control [5]: 1.12; fold changes relative to vehicle control [6]: 1.08; fold changes relative to vehicle control [7]: 1.34; fold changes relative to vehicle control [8]: 1.05; fold changes relative to vehicle control [9]: 0.95
CCCCCCOc1ccc(Cc2cnc(N)nc2N)cc1 [compound 1] | 0.93 |  |  |  | 1.21 |  |  |  |  | 1.2 | 1.91 | 0.95 | 0.91 | 0.88 | 1.15 | 0.79 | 
CCCCCCOc1cccc(Cc2cnc(N)nc2N)c1 [compound 2] | 1.12 |  |  |  | 1.58 |  |  |  |  | 0.95 | 2.29 | 1.09 | 0.99 | 0.96 | 2.32 | 1.03 | 
Nc1nc2cccc(-c3ccccc3)c2n1Cc1ccc(Cl)c(Cl)c1 [compound 3] | 0.85 |  |  |  | 1.12 |  |  |  |  | 0.98 | 1.43 | 1.06 | 1.13 | 0.92 | 0.91 | 0.92 | 
NCCOCCOCC(=O)Nc1nc2ncc(CNc3ccc(C(=O)NC(CCC(=O)O)C(=O)O)cc3)nc2c(=O)[nH]1 (stereo not drawn) [compound 6] | 1.21 | 0.98 | 1.65 | 0.9 | 1.31 | 1.03 | 1.39 | 1.3 | 1.01 |  |  |  |  |  |  |  | 
NCCCNc1ccc(C(=O)NC(CCC(=O)O)C(=O)O)cc1 (stereo not drawn) [compound 7] | 1.05 | 0.97 | 1.35 | 1.06 | 1.05 | 0.87 | 1.37 | 1.06 | 1.08 |  |  |  |  |  |  |  | 

Source: article PMC6199744, “Development of Chemical Proteomics for the Folateome and Analysis of the Kinetoplastid Folateome” (ACS Infectious Diseases, 2018)
